Results on 31 compounds are retold here after ChEMBL document CHEMBL1201862, “PubChem BioAssay data set” (2004).

One data set deals with Cytochrome P450 2C19 (Homo sapiens, UniProt P33261). The data set is described as follows: Cytochrome panel assay with activity outcomes. Panel member name: p450-cyp2c19 Compounds with AC50 equal or less than 10 uM are considered active. It is filed as functional.
In the next data set the target is T1, Cytochrome P450 1A2 (Homo sapiens, UniProt P05177).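 Note: PubChem cytochrome P450 panel assay, CYP1A2 panel member.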
T1 sequence (P05177 whole entry): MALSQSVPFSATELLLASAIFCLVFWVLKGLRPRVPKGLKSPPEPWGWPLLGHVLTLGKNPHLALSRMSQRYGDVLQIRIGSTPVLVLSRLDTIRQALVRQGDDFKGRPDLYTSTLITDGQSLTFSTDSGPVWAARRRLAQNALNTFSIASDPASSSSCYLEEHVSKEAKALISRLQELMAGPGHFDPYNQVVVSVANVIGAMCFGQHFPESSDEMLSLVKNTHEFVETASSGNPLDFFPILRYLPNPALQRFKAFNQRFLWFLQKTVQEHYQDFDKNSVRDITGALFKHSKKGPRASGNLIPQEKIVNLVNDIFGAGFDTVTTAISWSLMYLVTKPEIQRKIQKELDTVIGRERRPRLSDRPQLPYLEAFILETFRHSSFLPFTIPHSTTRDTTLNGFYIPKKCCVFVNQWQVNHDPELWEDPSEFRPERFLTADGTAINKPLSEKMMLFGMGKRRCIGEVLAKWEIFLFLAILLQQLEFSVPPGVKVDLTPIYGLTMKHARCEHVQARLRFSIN

Another data set deals with INS1. The data set can be described thus: beta cell apoptosis inhibitors, cytokine rescue, dose response, luminescence, retest (AID 449756).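 Note: cell death triggered by IL-1 beta plus TNF-alpha plus IFN-gamma mixture; protective hits raise ATP signal compared with cytokine alone wells.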 The data set is classed as functional, cell-based. Conditions: Rattus norvegicus.
Data set [1] has as its target T2, Rac GTPase-activating protein 1 (Homo sapiens, UniProt Q9H0H5).
T2 sequence (Q9H0H5 whole entry): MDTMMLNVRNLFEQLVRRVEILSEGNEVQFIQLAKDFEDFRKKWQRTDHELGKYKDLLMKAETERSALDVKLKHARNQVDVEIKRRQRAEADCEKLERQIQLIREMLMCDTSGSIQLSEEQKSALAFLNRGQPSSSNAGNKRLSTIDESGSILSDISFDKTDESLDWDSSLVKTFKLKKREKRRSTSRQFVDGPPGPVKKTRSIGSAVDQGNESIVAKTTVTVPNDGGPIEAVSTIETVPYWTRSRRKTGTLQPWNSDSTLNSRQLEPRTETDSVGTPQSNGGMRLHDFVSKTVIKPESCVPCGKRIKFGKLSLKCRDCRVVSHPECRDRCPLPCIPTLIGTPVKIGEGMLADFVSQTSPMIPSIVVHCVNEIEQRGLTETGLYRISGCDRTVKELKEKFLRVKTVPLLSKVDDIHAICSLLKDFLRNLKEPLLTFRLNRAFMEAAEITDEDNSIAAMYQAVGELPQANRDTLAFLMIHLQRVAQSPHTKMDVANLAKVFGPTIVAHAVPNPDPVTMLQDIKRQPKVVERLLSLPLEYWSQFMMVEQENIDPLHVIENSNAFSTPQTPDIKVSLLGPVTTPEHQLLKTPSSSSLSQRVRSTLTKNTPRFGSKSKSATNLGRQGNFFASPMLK
The data set can be described thus: MgcRacGAP GTPase-activating activity inhibitors, confirmation, biochemical, ADP Hunter fluorescence, primary and confirmatory (AID 624330). The data set is classed as functional.

Another data set deals with Cytochrome P450 2C9 (Homo sapiens, UniProt P11712).
For data set [2], the target named is T3, Heat shock factor protein 1 (Mus musculus, UniProt P38532).
T3 sequence (P38532 whole entry): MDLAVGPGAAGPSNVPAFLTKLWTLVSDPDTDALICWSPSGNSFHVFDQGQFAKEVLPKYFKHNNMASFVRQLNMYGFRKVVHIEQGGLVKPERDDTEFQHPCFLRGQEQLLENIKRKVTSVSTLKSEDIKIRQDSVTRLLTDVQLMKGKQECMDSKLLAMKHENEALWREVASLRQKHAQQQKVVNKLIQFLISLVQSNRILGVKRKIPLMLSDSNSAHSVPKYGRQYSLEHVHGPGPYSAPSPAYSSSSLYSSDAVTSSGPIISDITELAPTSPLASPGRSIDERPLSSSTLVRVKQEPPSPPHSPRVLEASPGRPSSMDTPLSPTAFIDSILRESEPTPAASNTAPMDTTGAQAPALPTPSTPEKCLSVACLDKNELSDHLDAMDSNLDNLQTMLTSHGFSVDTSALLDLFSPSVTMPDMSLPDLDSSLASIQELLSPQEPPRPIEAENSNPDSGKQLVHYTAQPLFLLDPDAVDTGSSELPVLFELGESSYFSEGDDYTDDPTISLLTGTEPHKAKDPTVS
The data set can be described thus: HSF1 potentiators in luciferase reporter cells, confirmation, cell-based, NIH3T3, luminescence, dose retest (AID 435004).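 Note: stress induced by proteasome inhibitor MG132 added 30 min after compound; luciferase reporter driven by HSF1 response element in NIH3T3 cells; actives raise luminescence as potentiators of the MG132 stress response.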 The data set is classed as functional. For orientation: In a reporter assay the amount or activity of a reporter protein is the signal.

Data set [3] is described as follows: HEp-2 cell cytotoxicity, dose response, cytotoxicity control for RSV inhibitor project, HTS (AID 2410). The data set is classed as functional. As to conditions: human respiratory syncytial virus.
Another data set has as its target Cytochrome P450 3A4 (Homo sapiens, UniProt P08684).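 Note: CYP3A4 tested as one member of a cytochrome P450 panel screen.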
A further data set deals with H4. The data set is described as follows: Luminescence Cell-Based Dose Response HTS to Identify Activators of 5'UTR Stem-Loop Driven Prion Protein mRNA Translation in H4 Neuroglioblastoma Cells. [Related pubchem assays: 1829 (Project Summary), 1814 (Primary HTS)]. It is filed as functional. As to conditions: Homo sapiens.

Each structure is given as a SMILES string. Active and inactive are the calls of the source.

Cytochrome P450 2C19, sequence (P33261 whole entry): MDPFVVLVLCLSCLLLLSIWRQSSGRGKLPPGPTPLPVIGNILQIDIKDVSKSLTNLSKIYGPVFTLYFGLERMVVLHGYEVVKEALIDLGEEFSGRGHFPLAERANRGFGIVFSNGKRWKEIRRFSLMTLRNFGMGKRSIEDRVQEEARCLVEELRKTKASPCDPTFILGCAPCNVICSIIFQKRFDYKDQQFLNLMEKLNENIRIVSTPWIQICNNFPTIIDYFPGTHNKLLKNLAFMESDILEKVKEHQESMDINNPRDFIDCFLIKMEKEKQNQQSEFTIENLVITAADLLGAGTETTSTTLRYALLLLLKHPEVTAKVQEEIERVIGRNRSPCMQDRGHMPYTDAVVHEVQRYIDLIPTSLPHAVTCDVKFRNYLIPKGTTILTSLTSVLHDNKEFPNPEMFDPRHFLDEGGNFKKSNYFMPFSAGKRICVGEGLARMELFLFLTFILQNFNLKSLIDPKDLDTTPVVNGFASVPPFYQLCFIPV
Cytochrome P450 2C9, sequence (P11712 whole entry): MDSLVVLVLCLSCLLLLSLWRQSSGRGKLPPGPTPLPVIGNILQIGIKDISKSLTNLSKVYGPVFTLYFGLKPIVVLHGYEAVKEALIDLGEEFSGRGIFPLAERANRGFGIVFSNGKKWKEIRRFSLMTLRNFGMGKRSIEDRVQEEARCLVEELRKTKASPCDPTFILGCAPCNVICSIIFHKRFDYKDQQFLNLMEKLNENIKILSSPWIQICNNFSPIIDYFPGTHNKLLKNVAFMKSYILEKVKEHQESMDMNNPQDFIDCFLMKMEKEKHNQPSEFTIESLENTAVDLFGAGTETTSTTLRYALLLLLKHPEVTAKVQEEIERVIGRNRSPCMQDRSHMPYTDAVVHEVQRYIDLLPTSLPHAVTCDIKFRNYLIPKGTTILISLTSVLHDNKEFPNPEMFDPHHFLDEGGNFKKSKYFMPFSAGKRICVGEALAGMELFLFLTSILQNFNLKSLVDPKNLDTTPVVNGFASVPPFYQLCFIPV
Cytochrome P450 3A4, sequence (P08684 whole entry): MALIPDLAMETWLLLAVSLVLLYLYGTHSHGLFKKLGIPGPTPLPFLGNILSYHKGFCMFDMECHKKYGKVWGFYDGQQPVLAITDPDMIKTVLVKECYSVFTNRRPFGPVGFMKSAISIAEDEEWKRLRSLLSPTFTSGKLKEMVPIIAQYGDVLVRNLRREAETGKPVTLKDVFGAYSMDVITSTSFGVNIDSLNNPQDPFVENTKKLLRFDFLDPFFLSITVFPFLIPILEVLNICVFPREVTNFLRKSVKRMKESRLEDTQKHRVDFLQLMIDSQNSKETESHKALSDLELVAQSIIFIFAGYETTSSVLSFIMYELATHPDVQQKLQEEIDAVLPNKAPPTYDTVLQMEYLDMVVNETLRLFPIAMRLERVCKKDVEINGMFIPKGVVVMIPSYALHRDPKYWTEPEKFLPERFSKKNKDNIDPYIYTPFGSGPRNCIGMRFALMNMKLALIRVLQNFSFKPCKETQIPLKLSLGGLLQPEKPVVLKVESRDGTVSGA

On to `NCCSc1nc(-c2ccccc2)c(-c2ccccc2)o1`, for which the AC50 – broadly, the concentration at which the activity in the assay is half-maximal – is 0.00794 µM (inconclusive) at Cytochrome P450 2C19 (read-out: AC50) and 3.16 µM (inconclusive) at Cytochrome P450 1A2. Turning to `Cc1ccc([N+](=O)[O-])c(OCCN2CCCCCC2)c1`, in the data set with INS1, the concentration at half-maximal activity (AC50) is 4.9 µM (active).

As to `Nc1ccc2c(c1)Nc1ccccc1CC2`, the IC50 (commonly the concentration at which inhibition is half-maximal) in data set [1] is 27.2 µM (active). Take `Nc1nc(N)c(/N=N\c2ccc(C(=O)O)c(O)c2)c(N)n1`: the AC50 on Cytochrome P450 2C19 (read-out: AC50) is 0.631 µM (inconclusive).

Consider `O=C(c1cccs1)N1CCN(C(=O)C(c2ccccc2)c2ccccc2)CC1`, for which the AC50 on Cytochrome P450 2C19 (read-out: AC50) is 25.1 µM (inconclusive). Consider `Cc1cc2nnc(SCC(=O)N3CCN(c4ccccc4)CC3)n2c(N)n1`, for which the AC50 result is “inconclusive” at Cytochrome P450 2C19 and 25.1 µM (inconclusive) on Cytochrome P450 2C9. For `O=C(NCCn1cccn1)C1CCC(=O)N(CCc2cccc(F)c2)C1` (configuration not stated), the EC50 (as a rule, the concentration that produces a half-maximal response) in [2] is > 260 µM (inactive). Turning to `O=C(CSc1ccc(Cl)cc1)Nc1ccc(N2CCN(C(=O)c3ccc(Cl)cc3)CC2)cc1`, the AC50 at Cytochrome P450 2C19 (read-out: AC50) was 14.1 µM (inconclusive). For the compound `Cc1ccc(S(=O)(=O)n2c(=O)oc3ccccc32)cc1`, in data set [2], the EC50 is > 260 µM (inactive).

With `Cc1c(Cl)cccc1NC(=O)CCC(=O)NNC(=O)c1ccco1`, the AC50 entry on Cytochrome P450 2C19 is listed as “inconclusive”.

As for `COc1ccc(CN(C)CCc2ccccn2)c(OC)c1OC`, the IC50 in data set [1] is 134 µM (active). The same measure, in the same setting: the same measure for `COc1cc(CNc2ccc3[nH]c(O)nc3c2)ccc1OCc1cccc(C)c1`: 236 µM (active). On to `COc1ccc(CC(=O)Nc2cc3oc4ccccc4c3cc2OC)cc1`, for which the 50% cytotoxic concentration (CC50) (commonly the concentration giving 50% cytotoxicity) in [3] is > 50 µM (active).

`O=C(NCc1nnc(S)n1-c1ccccc1)c1ccc(S(=O)(=O)N2CCOCC2)cc1`: the AC50 at Cytochrome P450 3A4 was 31.6 µM (inconclusive); on Cytochrome P450 2C19 (read-out: AC50), 25.1 µM (inconclusive); at Cytochrome P450 2C9, 14.1 µM (inconclusive).

On to `Cc1nc(N2CCN(S(=O)(=O)c3ccc(F)cc3)CC2)c2c(-c3cccs3)csc2n1`, for which the CC50 in data set [3] is 16.8 µM (active). For the compound `COCC(C)NCc1ccc(OC)c(Br)c1` (configuration not stated), the IC50 in [1] is 167 µM (active). Regarding `Cc1cccn2c(=O)c3c(nc12)N1CCC(Cc2ccccc2)CC1C1(C3)C(=O)N(C)C(=O)N(C)C1=O` (configuration not stated), the EC50 in [2] is > 260 µM (inactive). Turning to `COc1ncc2nc(-c3cn(C)c4ccccc34)c(=O)n(C)c2n1`, the AC50 result on Cytochrome P450 2C19 is given as “inconclusive”. As to `O=C(O)CSc1nnnn1-c1ccc2c(c1)OCCO2`, the EC50 in data set [2] is > 260 µM (inactive). As for `COc1ccc(F)cc1C(=O)C1CCCN(C(=O)c2ccccc2N(C)C)C1` (configuration not stated), the CC50 in [3] is 28.1 µM (active).

Turning to `O=C(c1cc(C(F)(F)F)cc(C(F)(F)F)c1)N1CCC2(CCCN(Cc3nccs3)C2)CC1`, the AC50 entry at Cytochrome P450 2C19 was “inconclusive”. Turning to `COC(=O)[C@H]1C[C@@H]1[C@H](NC(=O)c1cc(C)nn1C)c1ccccc1`, the AC50 at Cytochrome P450 2C19 (read-out: AC50) was 15.8 µM (inconclusive). `Nc1c(C(=O)Nc2ccccc2Cl)nnn1-c1ccc2c(c1)OCCO2`: in the data set with H4, the EC50 is > 120 µM (not active).

As to `CCOc1ccc(S(=O)(=O)N2CCCCC2)cc1NC(=O)CN1CCCC1c1cccs1` (configuration not stated), the half-maximal activity concentration (AC50) with INS1 is 4.23 µM (active). As for `Cc1cc(C)c(OCCCCN(C)Cc2ccccc2)c(C)c1`, the IC50 in data set [1] is 120 µM (active). As to `CCOC(=O)C(NC(=O)CC)(Nc1sc2c(c1C(=O)OC)CCN(C)C2)C(F)(F)F` (configuration not stated), the AC50 at Cytochrome P450 2C19 (read-out: AC50) was 2.51 µM (inconclusive); on Cytochrome P450 1A2 it was 10 µM (inconclusive); on Cytochrome P450 2C9 it was 15.8 µM (inconclusive). Regarding `O=c1c(-c2cccc(Cl)c2)c[nH]n1-c1ccccc1`, the IC50 in [1] was 59.6 µM (active). Regarding `CCCCOc1ccc(CNC(=S)N/N=C/c2ccc(OC)c(OC)c2)cc1`, the CC50 in [3] is 41.2 µM (active). With `COc1cc(/C=N/n2c(S)nnc2-c2cc(C)[nH]n2)cc(OC)c1O`, the IC50 in data set [1] was 69.3 µM (active). Still for that read-out and setting: with `COc1ccc(/C=N/N2CCN(C)CC2)cc1O` the figure was 39.2 µM (active). For `CCN(CC)c1ccc(/C=N/N(c2ccccc2)c2ccccc2)c(O)c1`, the AC50 with INS1 is 5.2 µM (active).
